Assay results from paper PMC6452685, “Lysyl-tRNA synthetase as a drug target in malaria and cryptosporidiosis” (Proceedings of the National Academy of Sciences of the …, 2019).
Like-named read-outs stand apart in the source and are kept apart here.

How the values were obtained:
[1] = molecular target: PfKRS1 (Plasmodium falciparum, UniProt Q8IDJ8); assay: Recombinant KRS thermal shift assay, PfKRS1; assay type: binding; set-up: recombinant PfKRS1 (77–583 and 80–583); 6xHis (N); made in house; host or cells: E. coli Rosetta BL21(DE3), vector pAVA0421; conditions: 40 µM inhibitor
Protocol: (§1) 2.9 Recombin ant KR S thermal shift assays ( UW)
(§2) Recombi nant PfKRS1, CpKRS, and HsKRS were di l u ted to 4 µM in assay buffe r c ontaining 20 mM Tris-HC l pH 8, 200 mM NaC l , 5 mM DTT, 5 mM MgC l2 and l i gands (1 mM lysi ne; 40 µM ATP; and 40 µM inhibitors) in various combinations. Ali quot s (10 µl) were added to a 96-well PCR plate and incubated at ambi ent temperature for 15 mi n. SYPRO® Ora n g e dye (I nv itrog en) was di l uted i n ass ay buffer to a 5x concent rat i on a nd 1 0 µl was added to t he P C R pl at e t o bri ng t he fi nal as s ay v ol ume t o 20 µl. The pl at e w as s eal ed and pul s e cent ri fug ed t o cons ol i dat e t he as s ay mix t ure and remov e ai r bu bbl es .
(§3) Us i ng a StepOne Pl us RT-PCR thermal cycler (Ap plied Biosystems) to monitor fluorescence at a n excitation/emission wavelength of 300/470-570 nm, the samples were heated from 25° C to 99° C at a ramp rate of .016° C/sec. Graphpa d® P rism software (GraphPad S oftware, San Diego, CA) was used to determine melting temperatures (Tm) us i ng Bol tzmann s i g moi dal analys is .
(§4) Table S3. Thermal shift data for compounds with P fKRS1, Cp KRS a nd Hs KRS.
(§5) Com poun d Eff ects o n Lys R S M elti ng Tem pe ratu re ( ∆Tm) […]

[2] = molecular target: CpKRS (Cryptosporidium parvum, UniProt Q5CR27); assay: Recombinant KRS thermal shift assay, CpKRS; assay type: binding; conditions: 40 µM inhibitor
Protocol: as §1, §2, §3, §4, §5

[3] = molecular target: T1, HsKRS (Homo sapiens, UniProt Q15046); assay: Recombinant KRS thermal shift assay, HsKRS; assay type: binding; conditions: 40 µM inhibitor
T1 construct: HsKRS (full-length) proteins; 6xHis (N); made in house; host or cells: E. coli Rosetta BL21(DE3), vector pAVA0421 (UW); template pET28a-KRS
Protocol: as §1, §2, §3, §4, §5

[4] = CHI logD; assay type: physicochemical; conditions: reversed-phase HPLC (Luna C18 column), pH 7.4
Protocol: targets. Thi s can be determi ned by ei ther l og D or Log P measurements, whi ch are tradi ti onal ly qui te time consuming and require quite large amounts of com pound to determine accurately.
The CHI Log D assay, fi rst descri bed by Valkό et a l. (17), has been adapt ed and perfo rmed at pH 7. […] An ali quot (10 µl) i s then i njected onto a Luna C18 col umn (Phenomenex, Maccl esfi el d, UK, 4.6 x 150 mm) wi th 5 µ m pa rti cl e size. Mobil e phase A (MPA) i s 50 mM ammoni um acetate (pH 7.4) and mobi l e Phase B (MPB) i s MeCN. The LC system used was a Dionex Ultimate 3000 HLPC where 10 0% MPA was hel d for the i ni ti al 1.5 mi n of the run, then a l i near gradi ent to 0% MPA takes pl ace over the next 10 mi n bef ore being held there fo r a furthe r 2. 5 mi n bef ore re-eq uilibration back to 100% MPA at 14 min with data collection continuing until 1 5 mi n. Flow rate was 1 ml/mi n w i t h det ecti on at 25 4 nm U V and ambi ent t emperat ure.
The ret ent i on t i me (t R) of t he unk nown drug is interpolated from the slope and intercept created us i ng ret ent i on t i mes of s t andard mi x t ure c o mponent s cont ai ni ng paracet amol , t heophy l l i ne, caffei ne, benzi mi dazol e, col chi ci ne, carbamazepi ne, i ndol e, propi ophenone, b uty rophen one , valerophenone and hepatophenone (prepared at 10 µg/ml in MeCN:water [1/1, by v ol ume]), w hi ch cov ers the C HI l og D rang e from -1 t o 4. […]
4.4 Int r ins ic C le ar ance (CLi) experiments
The mous e an d h uman c ry opres erv ed he pat ocy t es w ere s uppl i ed by Xenot ech (bat ches M C 53 9 n a HUE50H ). The procedure was carried out as reported prev i ous l y (15). […] Immediately, at time zero, then at 3, 6, 9, 15 and 30 min an aliquot ( 50 μl) o f the i ncubati on mi x ture was remov ed and mi x ed with acetonitrile (100 μl) contai ni ng i nternal s tandard to stop the reaction. […] XLfi t software (I DBS, Guildford UK) was used to cal cul ate the exponenti al decay and consequentl y the rate cons tant (ke-1) from the rati o of peak area of tes t compou nd to i nternal s tandard at each ti me poi nt . […]

[5] = read-out: ΔTm PfKRS, ATP + Lysine
[6] = read-out: ΔTm PfKRS, no substrate

T1 sequence (Q15046 whole entry): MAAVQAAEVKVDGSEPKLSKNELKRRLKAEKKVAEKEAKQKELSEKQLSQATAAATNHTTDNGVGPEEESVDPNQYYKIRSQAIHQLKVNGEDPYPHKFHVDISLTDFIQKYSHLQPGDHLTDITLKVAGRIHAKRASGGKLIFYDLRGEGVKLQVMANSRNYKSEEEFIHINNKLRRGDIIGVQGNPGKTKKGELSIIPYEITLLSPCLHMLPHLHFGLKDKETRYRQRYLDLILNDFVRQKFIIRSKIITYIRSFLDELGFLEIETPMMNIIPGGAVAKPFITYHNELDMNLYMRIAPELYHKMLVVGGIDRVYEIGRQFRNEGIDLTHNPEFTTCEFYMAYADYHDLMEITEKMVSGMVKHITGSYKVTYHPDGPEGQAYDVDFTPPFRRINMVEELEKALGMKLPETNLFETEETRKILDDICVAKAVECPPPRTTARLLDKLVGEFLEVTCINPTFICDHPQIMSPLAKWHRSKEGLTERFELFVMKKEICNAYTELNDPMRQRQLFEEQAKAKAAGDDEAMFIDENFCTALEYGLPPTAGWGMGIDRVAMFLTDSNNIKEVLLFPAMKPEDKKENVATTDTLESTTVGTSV
Chain of PfKRS1 (Q8IDJ8 77-583): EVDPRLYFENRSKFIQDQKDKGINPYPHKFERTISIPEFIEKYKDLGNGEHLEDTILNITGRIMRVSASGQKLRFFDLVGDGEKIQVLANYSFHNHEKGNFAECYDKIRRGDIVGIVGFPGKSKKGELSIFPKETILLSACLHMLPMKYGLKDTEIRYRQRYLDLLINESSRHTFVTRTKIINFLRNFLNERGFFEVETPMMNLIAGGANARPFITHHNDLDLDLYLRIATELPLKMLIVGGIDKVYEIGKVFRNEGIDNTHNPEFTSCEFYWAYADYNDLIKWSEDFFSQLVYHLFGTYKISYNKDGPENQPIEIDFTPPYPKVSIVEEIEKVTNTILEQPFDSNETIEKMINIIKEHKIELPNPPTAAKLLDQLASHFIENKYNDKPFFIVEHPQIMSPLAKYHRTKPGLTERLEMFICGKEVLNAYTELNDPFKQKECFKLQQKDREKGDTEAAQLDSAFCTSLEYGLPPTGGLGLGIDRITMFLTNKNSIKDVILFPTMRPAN
Chain of CpKRS (Q5CR27 entry or part of it): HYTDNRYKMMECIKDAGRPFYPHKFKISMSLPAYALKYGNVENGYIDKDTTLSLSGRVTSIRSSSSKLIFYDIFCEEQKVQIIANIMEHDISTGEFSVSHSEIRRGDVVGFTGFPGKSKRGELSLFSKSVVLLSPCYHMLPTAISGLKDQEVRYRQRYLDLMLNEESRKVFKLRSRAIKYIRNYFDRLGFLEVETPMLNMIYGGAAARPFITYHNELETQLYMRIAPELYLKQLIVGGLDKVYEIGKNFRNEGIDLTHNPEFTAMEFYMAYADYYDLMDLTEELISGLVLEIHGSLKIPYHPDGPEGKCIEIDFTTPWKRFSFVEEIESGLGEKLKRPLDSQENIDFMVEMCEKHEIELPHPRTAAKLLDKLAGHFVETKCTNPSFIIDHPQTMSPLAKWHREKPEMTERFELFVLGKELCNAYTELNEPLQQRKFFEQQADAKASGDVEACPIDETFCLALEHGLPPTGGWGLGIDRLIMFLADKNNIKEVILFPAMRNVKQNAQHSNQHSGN

| Structure (SMILES) | ΔTm at 40 µM [1, 5] | ΔTm at 40 µM ([1]; read-out: ΔTm PfKRS, ATP) | ΔTm at 40 µM ([1]; read-out: ΔTm PfKRS, Lysine) | ΔTm at 40 µM [1, 6] | ΔTm at 40 µM ([2]; ATP + Lysine) | ΔTm at 40 µM ([2]; ATP) | ΔTm at 40 µM ([2]; Lysine) | ΔTm at 40 µM ([2]; no substrate) | ΔTm at 40 µM ([3]; ATP + Lysine) | ΔTm at 40 µM ([3]; ATP) | ΔTm at 40 µM ([3]; Lysine) | ΔTm at 40 µM ([3]; no substrate) | chromatographic logD [4] | ΔTm at 40 µM ([1]; ATP + Lysine, read-out: ΔTm PfKRS) | ΔTm at 40 µM ([1]; ATP, read-out: ΔTm PfKRS) | ΔTm at 40 µM ([1]; Lysine, read-out: ΔTm PfKRS) | ΔTm at 40 µM ([1]; no substrate, read-out: ΔTm PfKRS) |
| --- | --- | --- | --- | --- | --- | --- | --- | --- | --- | --- | --- | --- | --- | --- | --- | --- | --- |
| O=C(NCC1(O)CCC(F)(F)CC1)c1cc(=O)c2cc(F)ccc2o1 [Compound 5] | 5.3 °C | 0.9 °C | 7.5 °C | 1.3 °C | 13 °C | -0.2 °C | 14.7 °C | -0.5 °C | -7.4 °C | 0.4 °C | -7.6 °C | 0.3 °C | 1.7 | – | – | – | – |
| O=C(NCC1(O)CCCCC1)c1cc(=O)c2cc(F)ccc2o1 [Compound 4] | 5.1 °C | 0.5 °C | 7.5 °C | 0.9 °C | 11.8 °C | 0 °C | 18.4 °C | -0.2 °C | -7.2 °C | -0.1 °C | -7.4 °C | -0.5 °C | – | – | – | – | – |
| O=C(NCC1CCCCC1)c1cc(=O)c2cc(F)ccc2o1 [Compound 3] | 2.4 °C | 0.2 °C | 5.3 °C | 0.5 °C | 0.8 °C | 0.2 °C | 1.2 °C | -0.2 °C | -10.8 °C | 0.4 °C | -8.4 °C | -0.1 °C | – | – | – | – | – |
| C[C@H]1CCC[C@H](C[C@H]2Cc3cc(O)cc(O)c3C(=O)O2)O1 [Compound 1, cladosporin, reference compound] | – | – | – | – | 14 °C | 0.1 °C | 19.5 °C | -0.1 °C | -8.2 °C | 0.3 °C | -9.2 °C | -0.1 °C | 2.4 | 7.2 °C | 3.5 °C | 9.3 °C | 3.4 °C |
| O=C(NCC1CCCCC1)c1cc(=O)c2ccccc2o1 [Compound 2] | 5.1 °C | 0.9 °C | 7.4 °C | 1.2 °C | 11.7 °C | 0.7 °C | 19.3 °C | 0 °C | -8.6 °C | 0.3 °C | -10 °C | -0.3 °C | 2.9 | – | – | – | – |
